Reference: patent US12139492B2 (Endotarget Inc., priority 2021, dated 2024)

Columns and labels:
Mino cells = experiment: Antiproliferative effect, MTS cell viability assay, Mino cells; assay type: cell-based; details: Homo sapiens, MINO, Mino mantle cell lymphoma cells; read-out: IC50 (anti-proliferation) Mino cells
How it was run: (§1)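 MTS read-out, A490 of formazan from metabolically active cells; compound 0–10 μM (0, 0.001, 0.01, 0.1, 1, 10 μM), 72 h exposure.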

JeKo-1 cells = experiment: Antiproliferative effect, MTS cell viability assay, JeKo-1 cells; assay type: cell-based; details: Homo sapiens; JeKo-1 mantle cell lymphoma cells; read-out: IC50 (anti-proliferation) JeKO-1 cells
How it was run: as §1

BTK = BTK (Homo sapiens, UniProt Q06187); experiment: Degradation of BTK protein in Namalwa cells (Western blot; DC50, Dmax); details: for DC50: BTK degradation, cell line not given
Chain of BTK (Q06187 whole entry): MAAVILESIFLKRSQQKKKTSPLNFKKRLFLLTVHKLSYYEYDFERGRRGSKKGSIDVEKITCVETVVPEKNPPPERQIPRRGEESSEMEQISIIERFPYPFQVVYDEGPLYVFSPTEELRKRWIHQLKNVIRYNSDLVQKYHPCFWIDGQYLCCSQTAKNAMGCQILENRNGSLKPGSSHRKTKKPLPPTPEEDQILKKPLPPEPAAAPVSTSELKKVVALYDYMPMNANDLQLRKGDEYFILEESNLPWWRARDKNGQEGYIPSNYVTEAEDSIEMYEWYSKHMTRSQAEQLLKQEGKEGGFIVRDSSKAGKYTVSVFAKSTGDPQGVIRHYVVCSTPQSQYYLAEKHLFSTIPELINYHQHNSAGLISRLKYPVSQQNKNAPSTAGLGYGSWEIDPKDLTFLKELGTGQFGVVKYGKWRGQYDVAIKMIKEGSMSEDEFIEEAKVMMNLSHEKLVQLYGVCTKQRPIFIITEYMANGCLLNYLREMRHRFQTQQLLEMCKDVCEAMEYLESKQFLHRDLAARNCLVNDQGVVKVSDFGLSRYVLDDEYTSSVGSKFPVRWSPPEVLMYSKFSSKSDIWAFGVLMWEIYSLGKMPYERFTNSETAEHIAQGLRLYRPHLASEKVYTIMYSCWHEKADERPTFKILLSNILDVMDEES

Structure (SMILES): Nc1ncnc2c1c(-c1ccc(Oc3ccccc3)cc1)nn2C1CCN(C2CCN(C(=O)N3CCN(CCN4CCN(c5ccc6c(c5)CN(C5CCC(=O)NC5=O)C6=O)CC4)CC3)CC2)CC1 (centres unmarked) [Compound 246, 3-(5-(4-(2-(4-(4-(4-amino-3-(4-phenoxyphenyl)-1H-pyrazolo[3,4-d]pyrimidin-1-yl)-[1,4′-bipiperidine]-1′-carbonyl)piperazin-1-yl)ethyl)piperazin-1-yl)-1-oxoisoindolin-2-yl)piperidine-2,6-dione]
- IC50 (Mino cells): 1000 to 10000 nM
- IC50 (JeKo-1 cells): 1000 to 10000 nM
- Dmax (BTK): > 75%
- DC50 (BTK): 10 to 50 nM

Structure (SMILES): Nc1ncnc2c1c(-c1ccc(Oc3ccccc3)cc1)nn2C1CCN(C2CCN(C(=O)N3CCN(CCC4CCN(c5ccc6c(c5)C(=O)N(C5CCC(=O)NC5=O)C6=O)CC4)CC3)CC2)CC1 (centres unmarked) [Compound 247, 5-(4-(2-(4-(4-(4-amino-3-(4-phenoxyphenyl)-1H-pyrazolo[3,4-d]pyrimidin-1-yl)-[1,4′-bipiperidine]-1′-carbonyl)piperazin-1-yl)ethyl)piperidin-1-yl)-2-(2,6-dioxopiperidin-3-yl)isoindoline-1,3-dione]
- IC50 (Mino cells): 1000 to 10000 nM
- IC50 (JeKo-1 cells): 1000 to 10000 nM
- Dmax (BTK): > 75%
- DC50 (BTK): 10 to 50 nM

Structure (SMILES): Nc1ncnc2c1c(-c1ccc(Oc3ccccc3)cc1)nn2C1CCN(C2CCN(C(=O)N3CCN(CCC4CCN(c5ccc6c(c5)CN(C5CCC(=O)NC5=O)C6=O)CC4)CC3)CC2)CC1 (centres unmarked) [Compound 248]
- IC50 (Mino cells): < 1000 nM
- IC50 (JeKo-1 cells): 1000 to 10000 nM
- Dmax (BTK): > 75%
- DC50 (BTK): 10 to 50 nM

Structure (SMILES): Nc1ncnc2c1c(-c1ccc(Oc3ccccc3)cc1)nn2C1CCN(C2CCN(C(=O)N3CCN(CCN4CCC(c5ccc6c(c5)C(=O)N(C5CCC(=O)NC5=O)C6=O)CC4)CC3)CC2)CC1 (centres unmarked) [Compound 249, 5-(1-(2-(4-(4-(4-amino-3-(4-phenoxyphenyl)-1H-pyrazol[3,4-d]pyrimidin-1-yl)-[1,4′-bipiperidine]-1′-carbonyl)piperazin-1-yl)ethyl)piperidin-4-yl)-2-(2,6-dioxopiperidin-3-yl)isoindoline-1,3-dione]
- IC50 (Mino cells): < 1000 nM
- IC50 (JeKo-1 cells): 1000 to 10000 nM
- Dmax (BTK): > 75%
- DC50 (BTK): 10 to 50 nM

Structure (SMILES): Nc1ncnc2c1c(-c1ccc(Oc3ccccc3)cc1)nn2C1CCN(C2CCN(C(=O)N3CCN(CCN4CCC(c5ccc6c(c5)CN(C5CCC(=O)NC5=O)C6=O)CC4)CC3)CC2)CC1 (centres unmarked) [Compound 250]
- IC50 (Mino cells): 1000 to 10000 nM
- IC50 (JeKo-1 cells): 1000 to 10000 nM
- Dmax (BTK): > 90%
- DC50 (BTK): 10 to 50 nM

Structure (SMILES): Nc1ncnc2c1c(-c1ccc(Oc3ccccc3)cc1)nn2C1CCN(C2CCN(C(=O)N3CCC(CCN4CCN(c5ccc6c(c5)C(=O)N(C5CCC(=O)NC5=O)C6=O)CC4)CC3)CC2)CC1 (centres unmarked) [Compound 251, 5-(4-(2-(1-(4-(4-amino-3-(4-phenoxyphenyl)-1H-pyrazolo[3,4-d]pyrimidin-1-yl)-[1,4′-bipiperidine]-1′-carbonyl)piperidin-4-yl)ethyl)piperazin-1-yl)-2-(2,6-dioxopiperidin-3-yl)isoindoline-1,3-dione]
- IC50 (Mino cells): < 1000 nM
- IC50 (JeKo-1 cells): 1000 to 10000 nM
- Dmax (BTK): > 90%
- DC50 (BTK): 10 to 50 nM

Structure (SMILES): Nc1ncnc2c1c(-c1ccc(Oc3ccccc3)cc1)nn2C1CCN(C2CCN(C(=O)N3CCC(CCN4CCN(c5ccc6c(c5)CN(C5CCC(=O)NC5=O)C6=O)CC4)CC3)CC2)CC1 (centres unmarked) [Compound 252, 3-(5-(4-(2-(1-(4-(4-amino-3-(4-phenoxyphenyl)-1H-pyrazolo[3,4-d]pyrimidin-1-yl)-[1,4′-bipiperidine]-1′-carbonyl)piperidin-4-yl)ethyl)piperazin-1-yl)-1-oxoisoindolin-2-yl)piperidine-2,6-dione]
- IC50 (Mino cells): < 1000 nM
- IC50 (JeKo-1 cells): < 1000 nM
- Dmax (BTK): > 90%
- DC50 (BTK): 10 to 50 nM

Structure (SMILES): Nc1ncnc2c1c(-c1ccc(Oc3ccccc3)cc1)nn2C1CCN(C2CCN(C(=O)N3CCC(CCN4CCC(c5ccc6c(c5)C(=O)N(C5CCC(=O)NC5=O)C6=O)CC4)CC3)CC2)CC1 (centres unmarked) [Compound 253, 5-(1-(2-(1-(4-(4-amino-3-(4-phenoxyphenyl)-1H-pyrazolo[3,4-d]pyrimidin-1-yl)-[1,4′-bipiperidine]-1′-carbonyl)piperidin-4-yl)ethyl)piperidin-4-yl)-2-(2,6-dioxopiperidin-3-yl)isoindoline-1,3-dione]
- IC50 (Mino cells): 1000 to 10000 nM
- IC50 (JeKo-1 cells): 1000 to 10000 nM
- Dmax (BTK): > 90%
- DC50 (BTK): 10 to 50 nM

Structure (SMILES): Nc1ncnc2c1c(-c1ccc(Oc3ccccc3)cc1)nn2C1CCN(C2CCN(C(=O)N3CCC(CCN4CCC(c5ccc6c(c5)CN(C5CCC(=O)NC5=O)C6=O)CC4)CC3)CC2)CC1 (centres unmarked) [Compound 254, 3-(5-(1-(2-(1-(4-(4-amino-3-(4-phenoxyphenyl)-1H-pyrazolo[3,4-d]pyrimidin-1-yl)-[1,4′-bipiperidine]-1′-carbonyl)piperidin-4-yl)ethyl)piperidin-4-yl)-1-oxoisoindolin-2-yl)piperidine-2,6-dione]
- IC50 (Mino cells): 1000 to 10000 nM
- IC50 (JeKo-1 cells): 1000 to 10000 nM
- Dmax (BTK): > 90%
- DC50 (BTK): < 10 nM

Structure (SMILES): Nc1ncnc2c1c(-c1ccc(Oc3ccccc3)cc1)nn2C1CCN(C2CCN(C(=O)N3CCC(CCC4CCN(c5ccc6c(c5)C(=O)N(C5CCC(=O)NC5=O)C6=O)CC4)CC3)CC2)CC1 (centres unmarked) [Compound 255, 5-(4-(2-(1-(4-(4-amino-3-(4-phenoxyphenyl)-1H-pyrazolo[3,4-d]pyrimidin-1-yl)-[1,4′-bipiperidine]-1′-carbonyl)piperidin-4-yl)ethyl)piperidin-1-yl)-2-(2,6-dioxopiperidin-3-yl)isoindoline-1,3-dione]
- IC50 (Mino cells): < 1000 nM
- IC50 (JeKo-1 cells): 1000 to 10000 nM
- Dmax (BTK): > 90%
- DC50 (BTK): 10 to 50 nM

Structure (SMILES): Nc1ncnc2c1c(-c1ccc(Oc3ccccc3)cc1)nn2C1CCN(C2CCN(C(=O)N3CCC(CCC4CCN(c5ccc6c(c5)CN(C5CCC(=O)NC5=O)C6=O)CC4)CC3)CC2)CC1 (centres unmarked) [Compound 256, 3-(5-(4-(2-(1-(4-(4-amino-3-(4-phenoxyphenyl)-1H-pyrazolo[3,4-d]pyrimidin-1-yl)-[1,4′-bipiperidine]-1′-carbonyl)piperidin-4-yl)ethyl)piperidin-1-yl)-1-oxoisoindolin-2-yl)piperidine-2,6-dione]
- IC50 (Mino cells): < 1000 nM
- IC50 (JeKo-1 cells): 1000 to 10000 nM
- Dmax (BTK): > 90%
- DC50 (BTK): < 10 nM

Structure (SMILES): Nc1ncnc2c1c(-c1ccc(Oc3ccccc3)cc1)nn2C1CCN(C2CCN(C(=O)N3CCN(CCCN4CCN(c5ccc6c(c5)C(=O)N(C5CCC(=O)NC5=O)C6=O)CC4)CC3)CC2)CC1 (centres unmarked) [Compound 257, 5-(4-(3-(4-(4-(4-amino-3-(4-phenoxyphenyl)-1H-pyrazolo[3,4-d]pyrimidin-1-yl)-[1,4′-bipiperidine]-1′-carbonyl)piperazin-1-yl)propyl)piperazin-1-yl)-2-(2,6-dioxopiperidin-3-yl)isoindoline-1,3-dione]
- IC50 (Mino cells): > 10000 nM
- IC50 (JeKo-1 cells): > 10000 nM
- Dmax (BTK): > 75%
- DC50 (BTK): > 50 nM

Structure (SMILES): Nc1ncnc2c1c(-c1ccc(Oc3ccccc3)cc1)nn2C1CCN(C2CCN(C(=O)N3CCN(CCCN4CCN(c5ccc6c(c5)CN(C5CCC(=O)NC5=O)C6=O)CC4)CC3)CC2)CC1 (centres unmarked) [Compound 258, 3-(5-(4-(3-(4-(4-(4-amino-3-(4-phenoxyphenyl)-1H-pyrazolo[3,4-d]pyrimidin-1-yl)-[1,4′-bipiperidine]-1′-carbonyl)piperazin-1-yl)propyl)piperazin-1-yl)-1-oxoisoindolin-2-yl)piperidine-2,6-dione]
- IC50 (Mino cells): 1000 to 10000 nM
- IC50 (JeKo-1 cells): > 10000 nM
- Dmax (BTK): > 75%
- DC50 (BTK): 10 to 50 nM

Structure (SMILES): Nc1ncnc2c1c(-c1ccc(Oc3ccccc3)cc1)nn2C1CCN(C2CCN(C(=O)N3CCN(CCCC4CCN(c5ccc6c(c5)C(=O)N(C5CCC(=O)NC5=O)C6=O)CC4)CC3)CC2)CC1 (centres unmarked) [Compound 259, 5-(4-(3-(4-(4-(4-amino-3-(4-phenoxyphenyl)-1H-pyrazolo[3,4-d]pyrimidin-1-yl)-[1,4′-bipiperidine]-1′-carbonyl)piperazin-1-yl)propyl)piperidin-1-yl)-2-(2,6-dioxopiperidin-3-yl)isoindoline-1,3-dione]
- IC50 (Mino cells): > 10000 nM
- IC50 (JeKo-1 cells): 1000 to 10000 nM
- Dmax (BTK): > 75%
- DC50 (BTK): > 50 nM

Structure (SMILES): Nc1ncnc2c1c(-c1ccc(Oc3ccccc3)cc1)nn2C1CCN(C2CCN(C(=O)N3CCN(CCCC4CCN(c5ccc6c(c5)CN(C5CCC(=O)NC5=O)C6=O)CC4)CC3)CC2)CC1 (centres unmarked) [Compound 260, 3-(5-(4-(3-(4-(4-(4-amino-3-(4-phenoxyphenyl)-1H-pyrazolo[3,4-d]pyrimidin-1-yl)-[1,4′-bipiperidine]-1′-carbonyl)piperazin-1-yl)propyl)piperidin-1-yl)-1-oxoisoindolin-2-yl)piperidine-2,6-dione]
- IC50 (Mino cells): 1000 to 10000 nM
- IC50 (JeKo-1 cells): 1000 to 10000 nM
- Dmax (BTK): > 75%
- DC50 (BTK): 10 to 50 nM

Structure (SMILES): Nc1ncnc2c1c(-c1ccc(Oc3ccccc3)cc1)nn2C1CCN(C2CCN(C(=O)N3CCN(CCCN4CCC(c5ccc6c(c5)C(=O)N(C5CCC(=O)NC5=O)C6=O)CC4)CC3)CC2)CC1 (centres unmarked) [Compound 261, 5-(1-(3-(4-(4-(4-amino-3-(4-phenoxyphenyl)-1H-pyrazolo[3,4-d]pyrimidin-1-yl)-[1,4′-bipiperidine]-1′-carbonyl)piperazin-1-yl)propyl)piperidin-4-yl)-2-(2,6-dioxopiperidin-3-yl)isoindoline-1,3-dione]
- IC50 (Mino cells): > 10000 nM
- IC50 (JeKo-1 cells): 1000 to 10000 nM
- Dmax (BTK): > 90%
- DC50 (BTK): 10 to 50 nM

Structure (SMILES): Nc1ncnc2c1c(-c1ccc(Oc3ccccc3)cc1)nn2C1CCN(C2CCN(C(=O)N3CCN(CCCN4CCC(c5ccc6c(c5)CN(C5CCC(=O)NC5=O)C6=O)CC4)CC3)CC2)CC1 (centres unmarked) [Compound 262, 3-(5-(1-(3-(4-(4-(4-amino-3-(4-phenoxyphenyl)-1H-pyrazolo[3,4-d]pyrimidin-1-yl)-[1,4′-bipiperidine]-1′-carbonyl)piperazin-1-yl)propyl)piperidin-4-yl)-1-oxoisoindolin-2-yl)piperidine-2,6-dione]
- IC50 (Mino cells): > 10000 nM
- IC50 (JeKo-1 cells): 1000 to 10000 nM
- Dmax (BTK): > 75%
- DC50 (BTK): > 50 nM
